Laboratory results from publication PMC3378510 (Nature immunology, 2012).

Experiments:
[1] = test system: 1E6 CD8^+ T cell clone; assay: Peptide mutagenesis scan of 1E6 T cells, TNF secretion; type: cell-based, human; details: compared with index peptide; peptide 1 μg/ml, 16 hr
[2] = test system: 1E6 clone, in the context of HLA A*0201; details: compared with preproinsulin-derived peptide ALWGPDPAAA; cited from earlier work

| Substance | TNF response / activation, in words [1] | agonist potency, in words [2] |
| --- | --- | --- |
| Q: L Position 2: ALWGPDPAAA with L2 mutated to Q (AQWGPDPAAA) | larger responses compared with the index peptide |  |
| R: A Position 1: ALWGPDPAAA with A1 mutated to R (RLWGPDPAAA) | larger responses compared with the index peptide |  |
| RQFGPDFPTI |  | most potent peptide identified |
